Article PMC11899342, “Novel Triazeneindole Antibiotics: Synthesis and Hit-to-Lead Optimization” (International Journal of Molecular Sciences, 2025)
pIC50: −log10 of the molar value. Values after ≈ are worked out from the molar mass of the structure shown. Like-named read-outs stand apart in the source and are kept apart here.

How the values were obtained:
[1] = tested on: human embryonic fibroblasts (HEFs); assay: MTT cytotoxicity on human embryonic fibroblasts; type: cell-based; conditions: 24 h, ND = non-toxic in tested concentrations (up to 50 mg/L); for IC50: Homo sapiens, Fibroblast
Procedure: (§1) The primary screening of 22 substances was performed on human embryonic fibroblasts (HEFs). […] The HepG2 cell line was obtained from the American Type Culture Collection (ATCC cat. # HB-8065). The primary HEF cells (normal human embryonic fibroblasts) were derived from human embryonic stem cells. The cells were cultured in DMEM/F12 (1:1) medium containing 10% fetal bovine serum (Invitrogen, Carlsbad, CA, USA) at 37 °C and 5% CO2, according to standard mammalian tissue culture protocols and sterile technique. […] The incubation time with the substance was 24 h for all substances and cell lines. Cell detachment by trypsin, centrifugation, and counting in a hemocytometer were performed 16 h before the addition of the substance. For correct counting of the HepG2 cells, the cell suspension was passed through a syringe needle to get rid of cell aggregates. The cells were placed in the wells of a 96-well plate. The number of cells was selected according to the properties of the cell line and the final optical density in the experiment. Fibroblasts and hepatocytes were used in the amount of 10 thousand cells per well in 100 μL of DMEM/F12 medium supplemented with 10% fetal bovine serum. The substances were added to 100 µL of medium in the wells so that the final concentrations were 50, 25, 12.5, 6.25, 3.125, and 1.62 mg/L. The final well volume was 200 µL. The medium containing fetal bovine serum, without added substances, was used as a negative control. After 24 h, excessive amounts of medium were discarded. A total of 30 µL of MTT solution (5 mg/mL in PBS) was added to each well. After the precipitation of formazan crystals (3 h incubation), they were dissolved using 100 μL of dimethyl sulfoxide. The optical density (OD) was measured at 570 nm using a microplate reader (Eppendorf). For every condition, the cell viabilities were assessed in at least three independent experiments for every cell culture. Cell survival was calculated using the following formula:(OD of treated cells − OD blank)/(OD of control cells − OD blank) × 100%, where OD blank represents the OD values in wells without cells but with the addition of the MTT and DMSO solutions. The results were presented in the form of cytotoxicity curves, and the graphs were also plotted in a Microsoft Excel program; the calculation of the IC50 half-maximal inhibition concentration values was performed in a GraphPad Prism 6.0 (GraphPad Software Inc., San Diego, CA, USA) program, based on the equations of the cytotoxicity curves.

[2] = tested on: HepG2 human liver carcinoma cells; assay: MTT cytotoxicity (hepatotoxicity) on HepG2; type: cell-based; conditions: for IC50: Homo sapiens, HepG2, 24 h
Procedure: as §1

MRSA = assay: Selectivity index (average IC50 on eukaryotic cells / average MIC on MRSA); type: cell-based, Staphylococcus aureus; conditions: average IC50 on eukaryotic cells divided by average MIC on MRSA
Procedure: The selectivity index was calculated for each compound as the average IC50 on eukaryotic cells divided by the average MIC on MRSA (Table 2).

MRSA clinical isolates = assay: MIC by broth microdilution against multidrug-resistant MRSA clinical isolates; type: cell-based, Staphylococcus aureus; conditions: for MIC Range Against 8 MRSA Strains: 8 multidrug-resistant MRSA clinical isolates, tested 0.125-1 mg/L; for MIC: Staphylococcus aureus, MRSA
Procedure: Clinical MRSA isolates with multidrug resistance were obtained from the collection of the Research Institute of Antimicrobial Chemotherapy, Smolensk State Medical Academy.
The MICs were determined using a broth microdilution method according to [42]. Briefly, serial dilutions of the tested compounds in 50 µL of Mueller Hinton broth (BD) were prepared in 96-well microplates. The antibiotics vancomycin and linezolid (Sigma-Aldrich, St. Louis, MO, USA) were used as a positive control. Bacterial suspensions of the tested MRSA strains were prepared in the Mueller Hinton broth (BD) with a concentration 1 × 10^6 CFU/mL, and then 50 µL aliquots were added to the prepared microplates. The final concentrations of the antibiotics in the wells were 1, 0.5, 0.25, and 0.125 mg/L, for the tested compounds, and 2 mg/L for vancomycin and linezolid. Negative control (lack of bacterial cells) and growth control (lack of compound) wells were included in all plates. The microplates were incubated at 37 °C for 18 h. The growth was assessed visually after incubation, and the MIC was assumed as the lowest compound concentration at which a noticeable growth of the microorganisms was inhibited (no visible growth). All experiments were conducted in triplicate.

[3] = Solubility in water by HPLC; type: physicochemical; conditions: for solubility at 5 min: water, kinetic from dmso stock
Procedure: The solubility of the compounds in water was assessed using HPLC analysis. Two 1.0 mg portions of the test compounds were dissolved in 10 μL of dimethyl sulfoxide; 1.0 mL of acetonitrile was added to one sample (standard), and 1.0 mL of water was added to the second sample (tested sample). Both vials were mixed in a shaker for 5 min, then centrifuged at 10,000 rpm for 5 min. The supernatants were collected and analyzed using Agilent 1290 Infinity (Agilent Technologies, Santa Clara, CA, USA) with a YMC-Triart C18 50 × 2.0 mm, 1.9 μm column. The concentration of the test compound in water was determined by comparing the peak areas of the standard (concentration 1.0 mg/mL) and the tested sample.

cytochrome P450 2C8 = biological target: T1, cytochrome P450 2C8 (Homo sapiens, UniProt P10632); assay: Inhibition of cytochrome P450 isoform activity in human liver microsomes; type: in vitro ADME; conditions: N/A: no inhibition, tested 0.0046–10 μM
T1 construct: was investigated using human liver microsomes (XenoTech, USA); tissue XenoTech; host or cells: human liver microsomes
T1 sequence (P10632 1-490): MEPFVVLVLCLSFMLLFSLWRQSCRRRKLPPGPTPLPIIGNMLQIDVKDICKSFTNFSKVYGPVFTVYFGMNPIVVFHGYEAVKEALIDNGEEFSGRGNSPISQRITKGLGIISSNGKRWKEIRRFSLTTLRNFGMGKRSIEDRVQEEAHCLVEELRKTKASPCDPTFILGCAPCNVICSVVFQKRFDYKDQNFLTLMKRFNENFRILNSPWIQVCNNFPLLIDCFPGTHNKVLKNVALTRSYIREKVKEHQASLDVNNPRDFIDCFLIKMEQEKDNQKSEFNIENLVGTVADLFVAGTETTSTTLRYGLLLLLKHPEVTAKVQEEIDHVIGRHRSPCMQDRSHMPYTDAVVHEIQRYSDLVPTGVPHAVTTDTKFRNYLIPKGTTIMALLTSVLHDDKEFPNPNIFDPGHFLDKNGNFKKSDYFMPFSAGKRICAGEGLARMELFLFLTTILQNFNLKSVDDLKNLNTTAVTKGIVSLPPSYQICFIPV
Procedure: The effect of the tested compound on the activity of the main isoforms of human liver cytochrome P450 (1A2, 2C9, 2C19, 2D6, 3A4, 2C8) was investigated using human liver microsomes (XenoTech, USA) and their corresponding substrates: phenacetin, testosterone, tolbutamide, S-mephenytoin, dextromethorphan hydrobromide, and amodiaquine dihydrochloride dihydrate (Sigma-Aldrich, USA).
[…]. The reaction was stopped after 20 min by adding acetonitrile. The resulting metabolites were detected using UPLC–MS/MS. The calculation of the IC50 half-maximal inhibition concentration values was performed in the GraphPad Prism 6.0 (GraphPad Software Inc., USA) program, based on the equations of the experimental curves.

[4] = Figure 6, MRSA strain 2, read-out: MIC against 8 MRSA strains
[5] = Figure 6, MRSA strain 7, read-out: MIC against 8 MRSA strains
[6] = Figure 6, MRSA strain 8, read-out: MIC against 8 MRSA strains
[7] = Figure 6, MRSA strain 9, read-out: MIC against 8 MRSA strains
[8] = Figure 6, MRSA strain 13, read-out: MIC against 8 MRSA strains
[9] = Figure 6, MRSA strain 21, read-out: MIC against 8 MRSA strains
[10] = Figure 6, MRSA strain 48, read-out: MIC against 8 MRSA strains
[11] = Figure 6, MRSA strain 50, read-out: MIC against 8 MRSA strains
[12] = read-out: Solubility in water, mass concentration
[13] = read-out: Solubility in water, molar concentration

| SMILES | IC50 [1] [µg/mL] | IC50 [2] [µg/mL] | Selectivity Index (MRSA) | MIC Range Against 8 MRSA Strains (MRSA clinical isolates) [µg/mL] | MIC (MRSA clinical isolates; [4]) [µg/mL] | MIC (MRSA clinical isolates; [5]) [µg/mL] | MIC (MRSA clinical isolates; [6]) [µg/mL] | MIC (MRSA clinical isolates; [7]) [µg/mL] | MIC (MRSA clinical isolates; [8]) [µg/mL] | MIC (MRSA clinical isolates; [9]) [µg/mL] | MIC (MRSA clinical isolates; [10]) [µg/mL] | MIC (MRSA clinical isolates; [11]) [µg/mL] | solubility at 5 min [3, 12] [µg/mL] | solubility at 5 min [3, 13] [µM] | IC50 HEF [1] [µg/mL] | IC50 HepG2 ([2]; 24 h) [µg/mL] | Solubility in water, mass concentration [3] [µg/mL] | MIC (MRSA clinical isolates; 8 MRSA strains, read-out: lowest MIC values against most tested strains) [µg/mL] | pIC50 (cytochrome P450 2C8) |
| --- | --- | --- | --- | --- | --- | --- | --- | --- | --- | --- | --- | --- | --- | --- | --- | --- | --- | --- | --- |
| CCOC(=O)c1[nH]c2cc(F)ccc2c1/N=N/N1CCN(C)CC1 [BX-SI035, Ethyl ester ethyl (E)-6-fluoro-3-((4-methylpiperazin-1-yl)diazenyl)-1H-indole-2-carboxylate] | 20 (≈ 60 µM) | 21 (≈ 63 µM) | 41 | 0.5 (≈ 1.5 µM) | 0.5 (≈ 1.5 µM) | 0.5 (≈ 1.5 µM) | 0.5 (≈ 1.5 µM) | 0.5 (≈ 1.5 µM) | 0.5 (≈ 1.5 µM) | 0.5 (≈ 1.5 µM) | 0.5 (≈ 1.5 µM) | 0.5 (≈ 1.5 µM) | 11.7 | 350 | – | – | – | – | – |
| CCOC(=O)c1[nH]c2cc(F)ccc2c1/N=N/N1CCCN(C)CC1 [BX-SI039, Ethyl (E)-6-fluoro-3-((4-methyl-1,4-diazepan-1-yl)diazenyl)-1H-indole-2-carboxylate] | 19 (≈ 54.7 µM) | 16 (≈ 46.1 µM) | 20 | 0.5 to 1 | 1 (≈ 2.88 µM) | 1 (≈ 2.88 µM) | 1 (≈ 2.88 µM) | 1 (≈ 2.88 µM) | 1 (≈ 2.88 µM) | 0.5 (≈ 1.44 µM) | 1 (≈ 2.88 µM) | 0.5 (≈ 1.44 µM) | 33.1 | 90 | – | – | – | – | – |
| CCOC(=O)c1[nH]c2cc(F)ccc2c1/N=N/N(C)CCN(C)C [BX-SI044, Ethyl (E)-3-(3-(2-(dimethylamino)ethyl)-3-methyltriaz-1-en-1-yl)-6-fluoro-1H-indole-2-carboxylate] | – | – | 27 | 0.25 to 1 | – | – | – | – | – | – | – | – | – | – | 19 (≈ 56.7 µM) | 13 (≈ 38.8 µM) | 17.55 (≈ 52.3 µM) | – | – |
| CCOC(=O)c1[nH]c2cc(F)ccc2c1/N=N/N1CCC(C)CC1 [BX-SI045, Ethyl (E)-6-fluoro-3-((4-methylpiperidin-1-yl)diazenyl)-1H-indole-2-carboxylate] | 29 (≈ 87.2 µM) | 22 (≈ 66.2 µM) | 74 | 0.25 to 0.5 | 0.5 (≈ 1.5 µM) | 0.5 (≈ 1.5 µM) | 0.25 (≈ 0.752 µM) | 0.25 (≈ 0.752 µM) | 0.5 (≈ 1.5 µM) | 0.25 (≈ 0.752 µM) | 0.25 (≈ 0.752 µM) | 0.25 (≈ 0.752 µM) | 2.77 | 10 | – | – | – | 0.25 (≈ 0.752 µM) | – |
| CCOC(=O)c1[nH]c2cc(F)ccc2c1/N=N/N(C)CCc1ccccn1 [BX-SI048, Ethyl (E)-6-fluoro-3-(3-methyl-3-(2-(pyridin-2-yl)ethyl)triaz-1-en-1-yl)-1H-indole-2-carboxylate] | 13 (≈ 35.2 µM) | 22 (≈ 59.6 µM) | 28 | 0.5 to 1 | 1 (≈ 2.71 µM) | 0.5 (≈ 1.35 µM) | 0.5 (≈ 1.35 µM) | 1 (≈ 2.71 µM) | 0.5 (≈ 1.35 µM) | 0.5 (≈ 1.35 µM) | 0.5 (≈ 1.35 µM) | 0.5 (≈ 1.35 µM) | 34.9 | 90 | – | – | – | – | – |
| O=c1c(O)c(-c2ccc(O)c(O)c2)oc2cc(O)cc(O)c12 [Quercetin, quercetin] | – | – | – | – | – | – | – | – | – | – | – | – | – | – | – | – | – | – | 5.58 |
